Consider 17 compounds from US6335339B1, “Triazine antiviral compounds” (Scriptgen Pharmaceuticals, Inc., priority 1998, dated 2002).

One test relates to HBV εRNA. Nature of the test: εRNA/oligonucleotide hybridization inhibition assay with rRNA competitor. Type of test: binding, Hepatitis B virus. To be noted: for IC50: radiolabeled εRNA, 60-fold excess rRNA competitor; for Specificity: ratio RRE+rRNA IC50/εRNA+rRNA IC50, max = inactive in RRE assay. The source says: One assay used in determining the activity of the compounds of the present invention is disclosed in copending U.S. patent application Ser. No. 08/709,342, filed Sep. 6, 1996, the disclosure of which is hereby incorporated herein by reference in its entirety. The assay detects the interaction between target RNA molecule and a test ligand by measuring the ligand's ability to inhibit hybridization between the RNA and a specific complementary oligonucleotide. In one embodiment, the target RNA is radiolabelled and the oligonucleotide is labeled with biotin; in this case, the extent of hybridization is determined by measuring the amount of radiolabeled RNA detected with a streptavidin/biotin-based capture system.
Concentrations of test compounds of between about 0.1 μM and about 200 μM are assayed for inhibition using radiolabeled εRNA in the absence or presence of a large excess of an unlabeled non-specific RNA competitor (such as, e.g., ribosomal RNA, rRNA). Compounds that bind εRNA non-specifically are competitively displaced by the rRNA, resulting in reduced or no inhibition of hybridization between the radiolabeled εRNA and the biotinylated oligonucleotide. Conversely, the inhibitory activity of compounds that specifically bind εRNA is not affected by the presence of the competitor rRNA.
The high throughput assays were performed in 96-well plates containing eighty drugs (5 μl, 60 μg/ml in DMSO) distributed one per well in columns 2-6 and 8-12 of the 8×12 96-well array. The remaining 16 wells in columns 1 and 7 were filled with 5 μl DMSO to serve as the control reactions. 45 μl of reaction mixture containing buffer, salts and radiolabeled target RNA were delivered on each well of the compound-containing plates to yield a 50 μl mixture containing 50 mM Tris-HCl, pH 7.5, 200 mM KCl, 5 mM MgCl2, 5 mM DTT, 6 μg/ml test compound, and 25 nM [^32 P]-labeled εRNA. The reaction was started by addition of the biotinylated oligonucleotide, 262.104 A (5 μl) to a final concentration of 100 nM. The reaction was incubated at 25° C. for 60 minutes, and then 5 μl of 0.3 mg/ml SAAP (streptavidin alkaline phosphatase conjugate, Pierce, Rockford, Ill.) was added. The reaction was incubated for an additional 30 minutes at 25° C. and filtered through 96-well format HATF nitrocellulose filters (Millipore, Bedford, Mass.) using a multiscreen vacuum manifold (Millipore, Bedford, Mass.). Subsequently, 300 μl of wash buffer (50 mM Tris-HCl, pH 7.5, 200 mM KCl) was filtered through to wash the filters. The filters were dried and supplemented with 20 μl scintillation fluid (Super Mix, Wallac Oy, Turku, Finland). The amount of hybrids formed was determined by scintillation counting of the radiolabeled εRNA retained on the filters.
The inhibitory effect of a test compound (expressed as percentage of inhibition, % Inh.) was calculated using the following formula: […]
where Ro is the average retention of hybrids in the 16 identical control reactions in columns 1 and 7 and Rx is the hybrids retained in the presence of a test drug, x.
(§1) Biotinylated oligonucleotides 262.104 A (5′-biotin-TTAGGCACAGCTTGGAGGCTTGAACAGTG-3′) and 208.92 A (5′-biotin-CGTCATTGACGCTGCGCCCA-3′) were synthetically prepared (Oligos Etc., Willsonville, Oreg.). These oligonucleotides are complementary to regions of the εRNA and RRE RNA targets, respectively.
A plasmid containing the target sequence following the bacteriophage SP6 promoter was used as a template for the synthesis of radiolabeled εRNA using [α^32 P]-UTP and SP6 RNA polymerase as described by the suppliers, e.g., Ambion, Austin, Tex., and by methods well known to those of ordinary skill in the art.
Compounds that inhibited the primary screening assay described above were individually titrated in the same assay at concentrations between 0.1 μM and 200 μM in the absence and presence of 60-fold excess rRNA as a non-specific competitor. […]

A further test deals with HIV derived RRE RNA. Nature of the test: heterologous hybridization inhibition assay with RRE RNA. To be noted: radiolabeled RRE RNA, rRNA competitor. The format is binding.
Excerpt: Specificity is further tested in a third assay in which the radiolabeled RNA is the HIV derived RRE RNA and the biotinylated oligonucleotide is complementary to RRE. Compounds with high specific activity for εRNA are not expected to be inhibitory in the RRE RNA based assay. The specificity of the ligand for εRNA is expressed as the ratio between the IC50 value obtained with the specific target RNA and the IC50 value obtained with a heterologous target (RRE RNA), both in the presence of competitor RNA.
as §1
Compounds that inhibited the primary screening assay described above were individually titrated in the same assay at concentrations between 0.1 μM and 200 μM in the absence and presence of 60-fold excess rRNA as a non-specific competitor. A third titration was performed in a heterologous assay using radiolabeled RRE RNA as the target and the complementary biotinylated oligonucleotide 208.92 A. From these three assays, the IC50 values and specificity for each compound was calculated.
IC50 values using rRNA competitor (from Example 1) and radiolabeled RRE RNA are shown in Table 1 for the following ligands. […] Specificity is calculated as the ratio of RRE+rRNA IC50/εRNA+rRNA IC50.

On to `CCCCN(CCCC)c1nc(NN=Cc2ccc(O)c(O)c2)nc(Nc2ccc([N+](=O)[O-])cc2)n1` [Compound 26], for which, in the test with HBV εRNA, the IC50 was determined as 15 µM and the Specificity entry is listed as “max”. Besides, the “RRE + rRNA IC50 (μM)” value in the test with HIV derived RRE RNA is “inactive”.

As for `Cc1ccc(Nc2nc(NN=Cc3ccc(O)cc3)nc(Nc3ccccc3)n2)c(C)c1` [Compound 81], in the test with HBV εRNA, the IC50 was 120 µM and the Specificity result is “max”. In addition, the “RRE + rRNA IC50 (μM)” value in the test with HIV derived RRE RNA was “inactive”.

On to `CCCCN(CCCC)c1nc(NN=Cc2c(C)[nH]c3ccccc23)nc(Nc2ccc([N+](=O)[O-])cc2)n1` [Compound 60], for which, in the test on HBV εRNA, the IC50 was 100 µM and the Specificity result was “max”. For the same compound, the “RRE + rRNA IC50 (μM)” value in the test on HIV derived RRE RNA is “inactive”.

For the compound `O=C1Nc2ccccc2C1=NNc1nc(Nc2ccc([N+](=O)[O-])cc2)nc(N2CCCCC2)n1` [Compound 153], the IC50 in the test with HBV εRNA and with HIV derived RRE RNA was 500 µM in each case. Further, the Specificity in the test on HBV εRNA stood at 1.0.

Regarding `O=[N+]([O-])c1ccc(Nc2nc(NN=Cc3ccc(Cl)c(Cl)c3)nc(N3CCCCC3)n2)cc1` [Compound 57], in the test on HBV εRNA, the IC50 amounted to 50.1 µM and the Specificity result is on record as “max”. Moreover, in the test on HIV derived RRE RNA, the “RRE + rRNA IC50 (μM)” value is “inactive”.

For the compound `Cc1ccccc1Nc1nc(NN=Cc2ccc(-c3ccc([N+](=O)[O-])cc3)o2)nc(Nc2ccc([N+](=O)[O-])cc2)n1` [Compound 112], in the test on HBV εRNA, the IC50 was found to be 25 µM and the Specificity is recorded as 30.0. In addition, the IC50 with HIV derived RRE RNA worked out at 751 µM.

As to `Clc1ccccc1C=NNc1nc(Nc2ccccc2)nc(N2CCCC2)n1` [Compound 127], the IC50 with HBV εRNA and with HIV derived RRE RNA was 80 µM throughout. In addition, the Specificity in the test on HBV εRNA was found to be 1.0.

For `O=[N+]([O-])c1ccc(Nc2nc(NN=Cc3cccc(Br)c3)nc(N3CCCCCC3)n2)cc1` [Compound 45], in the test on HBV εRNA, the IC50 turned out to be 39.9 µM and the Specificity result is “max”. In addition, in the test on HIV derived RRE RNA, the “RRE + rRNA IC50 (μM)” value was “inactive”.

With `Clc1ccccc1C=NNc1nc(Nc2ccccc2)nc(N2CCOCC2)n1` [Compound 73], in the test on HBV εRNA, the IC50 was found to be 120 µM and the Specificity result is listed as “max”. The “RRE + rRNA IC50 (μM)” value with HIV derived RRE RNA is “inactive”.

`O=[N+]([O-])c1ccc(Nc2nc(NN=Cc3cc(Br)ccc3O)nc(N3CCOCC3)n2)cc1` [Compound 107]: in the test on HBV εRNA, the IC50 was 14.9 µM and the Specificity is reported as 1.7. Besides, in the test on HIV derived RRE RNA, the IC50 is 25 µM.

Consider `O=[N+]([O-])c1ccc(Nc2nc(NN=Cc3ccccc3F)nc(N3CCCCCC3)n2)cc1` [Compound 48], for which, in the test with HBV εRNA, the IC50 came out at 30 µM and the Specificity entry is “max”. Also, the “RRE + rRNA IC50 (μM)” value in the test on HIV derived RRE RNA was “inactive”.

As to `O=[N+]([O-])c1ccc(Nc2nc(NN=Cc3cc(Br)ccc3O)nc(N3CCCCCC3)n2)cc1` [Compound 90], in the test with HBV εRNA, the IC50 is 15 µM and the Specificity came out at 3.0. Besides, the IC50 in the test on HIV derived RRE RNA came to 44.9 µM.

Consider `CCN(CC)c1nc(NN=CC=Cc2ccccc2)nc(Nc2ccc([N+](=O)[O-])cc2)n1` [Compound 132], for which, in the test on HBV εRNA, the IC50 worked out at 70.1 µM and the Specificity was 11.4. The IC50 in the test with HIV derived RRE RNA was found to be 800 µM.

As to `O=[N+]([O-])c1ccc(Nc2nc(NN=Cc3c[nH]c4ccccc34)nc(N3CCCCCC3)n2)cc1` [Compound 87], in the test on HBV εRNA, the IC50 came to 8.1 µM and the Specificity was found to be 37.0. Besides, the IC50 in the test with HIV derived RRE RNA was determined as 300 µM.

Regarding `O=[N+]([O-])c1ccc(Nc2nc(NN=Cc3ccccc3)nc(N3CCOCC3)n2)cc1` [Compound 110], in the test on HBV εRNA, the IC50 was 20 µM and the Specificity came out at 4.0. For the same compound, the IC50 in the test on HIV derived RRE RNA came to 79.9 µM.

`CCCCN(CCCC)c1nc(NN=Cc2ccccc2OC)nc(Nc2ccc([N+](=O)[O-])cc2)n1` [Compound 86]: in the test with HBV εRNA, the IC50 came out at 200 µM and the Specificity entry is “max”. Also, in the test with HIV derived RRE RNA, the “RRE + rRNA IC50 (μM)” value is “inactive”.

Turning to `Cc1ccc(C=NNc2nc(Nc3ccccc3)nc(Nc3ccc([N+](=O)[O-])cc3)n2)cc1` [Compound 66], in the test on HBV εRNA, the IC50 was determined as 114 µM and the Specificity entry was “max”. In the test on HIV derived RRE RNA, the “RRE + rRNA IC50 (μM)” value was “inactive”.
